Data from patent US12150927B2, “Use of cannabidiolic acid in the treatment of autism spectrum disorder and associated disorders” (GW Research Limited, priority 2016, dated 2024).

Assays:
[1] = system: Fmr1 KO and WT mice (PND21); assay: Susceptibility to audiogenic seizures; assay type: in vivo
Experimental: This trait was evaluated in PND21 mice after acute administration of the compounds or its vehicle, 30 min before starting the procedure. To measure audiogenic seizure sensitivity mice were placed individually into a novel environment, a glass cylinder (40 cm high, 16 cm diameter) and allowed to explore for 1 min. Next, a bell (100 dB) was rung for 30 see and seizure activity scored according to the following scale: no response, 0; wild running, 1; clonic seizure, 2; tonic seizure, 3; status epilepticus/respiratory arrest/death, 4.
On postnatal day 21 (PND21) WT and Fmr1 KO mice were injected with CBDA (20 mg/kg) or vehicle, 30 min before exposure to a bell ring (100 dB). Mice exposed to this noise for 30 see ceased from their normal exploratory behaviour and reacted with gradually to wild-running, clonic seizure, tonic seizure or death. The maximum response was annotated for each mouse as detailed in Table 2 below. A score was calculated according to the severity of the symptoms as explained in the Methods section.

MeCP2 KO mice = assay: Novel Object Recognition (NOR) test, short- and long-term memory, mouse model of Rett syndrome; assay type: in vivo
Experimental: Furthermore, the efficacy of CBDA in reverting/attenuating the short- and long-term memory deficits present in these mice was evaluated. The Novel Object Recognition (NOR) test was performed before the starting of the treatment Post Natal Day 28 (PND 28), at PND 41 when the first motor symptoms appear and at PND 56 and 66 when the disease is fully manifested.
At PND 28, 41, 56 and 66 the effect of CBDA on short- and long-term memory deficits was investigated through the Novel Object Recognition (NOR) test.
The experiment was performed as previously described (Zamberletti E. et al. 2014 and Kruk-Stomka M. et al. 2014).
The experimental apparatus used for the Novel Object Recognition test was an open-field box (43×43×32 cm) made of Plexiglas, placed in a dimly illuminated room. Animals performed each test individually.
Briefly, each animal was placed in the arena and allowed to explore two identical previously unseen objects for 10 minutes (familiarization phase). After an inter-trial interval of 30 minutes and 24 hours one of the two familiar objects was replaced by a novel, previously unseen object and mice were returned to the arena for the 10-minute test phase.
During the test phase the time spent exploring the familiar object (Ef) and the new object (En) was recorded separately by two observers blind to the groups and the discrimination index was calculated as follows: [(En−Ef)/(En+Ef)]×100.

[2] = FXS (Fmr1 KO) mice PND21, n = 5, CBDA 20 mg/kg acute (30 min)
[3] = WT mice PND21, n = 6, CBDA 20 mg/kg acute (30 min)

SMILES: C=C(C)[C@@H]1CCC(C)=C[C@H]1c1c(O)cc(CCCCC)c(C(=O)O)c1O [CBDA, Cannabidiolic acid]
- number of mice with maximum response: Clonic seizure [1, 2]: 0
- number of mice with maximum response: Death [1, 2]: 0
- number of mice with maximum response: No response [1, 2]: 2
- number of mice with maximum response: Tonic seizure [1, 2]: 1
- number of mice with maximum response: Wild running [1, 2]: 2
- seizure severity ([1]; FXS mice, CBDA 20 mg/kg, 30 min before 100 dB bell, vs vehicle): either no seizures or seizures of lower severity
- number of mice with maximum response: Clonic seizure [1, 3]: 0
- number of mice with maximum response: Death [1, 3]: 0
- number of mice with maximum response: No response [1, 3]: 6
- number of mice with maximum response: Tonic seizure [1, 3]: 0
- number of mice with maximum response: Wild running [1, 3]: 0
- short-term memory in the NOR test (MeCP2 KO mice; MeCP2 KO mice, CBDA 2 and 20 mg/kg i.p., each time point (PND 41, 56, 66), 30 min inter-trial interval, FIG. 10): reverted the cognitive impairment in short-term memory
- long-term memory in the NOR test (MeCP2 KO mice; MeCP2 KO mice, both doses of CBDA (2 and 20 mg/kg i.p.), 24 hours inter-trial interval, FIG. 11): counteract the cognitive impairment in long-term memory
- short-term recognition memory in the NOR test (MeCP2 KO mice; WT littermates, CBDA 2 and 20 mg/kg i.p., FIG. 10): without affecting recognition memory
- long-term recognition memory in the NOR test (MeCP2 KO mice; WT littermates, both doses of CBDA, FIG. 11): without affecting recognition memory
